Here are results for 25 compounds from ChEMBL document CHEMBL1147551, “Synthesis and inhibition of Src kinase activity by 7-ethenyl and 7-ethynyl-4-anilino-3-quinolinecarbonitriles” (Bioorg Med Chem Lett, 2004).

Assay [1] is filed under the species Rattus norvegicus. In words: Inhibitory activity against Src-dependent cell proliferation assay using rat fibroblasts.
Assay [2] has as its target Proto-oncogene tyrosine-protein kinase Src (Homo sapiens, UniProt P12931). Nature of the assay: Enzyme inhibitory activity against recombinant human Src protein tyrosine kinase.
The species named for assay [3] is Rattus norvegicus. Nature of the assay: Inhibitory activity against Src-dependent cell proliferation assay, using rat fibroblasts. It is filed as functional.

What is called IC50 is the point on the concentration scale where inhibition reaches its midpoint. As a reminder, the Inhibition is the change of the read-out against control, counted positive when it falls. The low end stands for a weak effect, the high end for a strong effect.

Chain of Proto-oncogene tyrosine-protein kinase Src (P12931 2-536 limits assumed): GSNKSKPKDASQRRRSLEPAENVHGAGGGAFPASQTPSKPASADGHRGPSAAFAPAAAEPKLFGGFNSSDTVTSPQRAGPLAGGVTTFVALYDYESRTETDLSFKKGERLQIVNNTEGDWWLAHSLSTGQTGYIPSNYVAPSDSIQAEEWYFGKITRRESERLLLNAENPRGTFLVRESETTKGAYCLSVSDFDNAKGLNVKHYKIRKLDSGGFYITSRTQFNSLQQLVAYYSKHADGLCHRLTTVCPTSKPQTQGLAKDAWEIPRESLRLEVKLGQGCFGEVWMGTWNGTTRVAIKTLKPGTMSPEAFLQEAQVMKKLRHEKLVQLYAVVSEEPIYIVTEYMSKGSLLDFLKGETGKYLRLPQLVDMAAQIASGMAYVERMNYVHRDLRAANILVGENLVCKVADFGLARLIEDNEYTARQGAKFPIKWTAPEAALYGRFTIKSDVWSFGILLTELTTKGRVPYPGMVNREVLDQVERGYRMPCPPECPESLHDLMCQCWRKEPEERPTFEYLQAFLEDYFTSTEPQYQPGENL

For the compound `COc1cc(Nc2c(C#N)cnc3cc(/C=C/c4ccccc4)c(OC)cc23)c(Cl)cc1Cl`, the IC50 in the assay listed under Rattus norvegicus [1] was determined as 1500 nM; in assay [2], 65 nM.

`COc1cc(Nc2c(C#N)cnc3cc(C#Cc4ccncc4)ccc23)c(Cl)cc1Cl`: the figures for the IC50 (in the assay filed under Rattus norvegicus [1]; in assay [2]) were 2700 nM and 83 nM, respectively.

As to `COc1cc(Nc2c(C#N)cnc3cc(/C=C/c4ccc(-c5ccccc5)cc4)ccc23)c(Cl)cc1Cl`, the IC50 was > 10000 nM in the assay listed under Rattus norvegicus [1] and 2300 nM in assay [2].

In the case of `COc1cc(Nc2c(C#N)cnc3cc(/C=C/c4ccncc4)c(OC)cc23)c(Cl)cc1Cl`, the IC50 in the assay filed under Rattus norvegicus [1] amounted to 80 nM.

As to `COc1cc(Nc2c(C#N)cnc3cc(C#Cc4ccc(-c5ccccc5)cc4)ccc23)c(Cl)cc1Cl`, the IC50 in the assay listed under Rattus norvegicus [1] is > 10000 nM; in assay [2] it was 420 nM.

Compound `N#Cc1cnc2cc(/C=C/c3ccncc3)ccc2c1Nc1ccc(Cl)cc1Cl` showed an IC50 in the assay listed under Rattus norvegicus [1] of 1200 nM.

On to `CCOc1cc(Nc2c(C#N)cnc3cc(/C=C/c4ccncc4)ccc23)c(Cl)cc1Cl`, for which the figures for the IC50 (in the assay filed under Rattus norvegicus [1]; in assay [2]) were > 10000 nM and 3100 nM, respectively.

With `COc1cc(Nc2c(C#N)cnc3cc(C#Cc4ccccc4)c(OC)cc23)c(Cl)cc1Cl`, the IC50 came to 3000 nM in the assay listed under Rattus norvegicus [1] and 57 nM in assay [2].

On to `COc1cc(Nc2c(C#N)cnc3cc(C#Cc4ccccn4)ccc23)c(Cl)cc1Cl`, for which the IC50 in the assay listed under Rattus norvegicus [1] is > 10000 nM; in assay [2], 530 nM.

The compound `COc1cc(Nc2c(C#N)cnc3cc(C#Cc4cccnc4)c(OC)cc23)c(Cl)cc1Cl` came in with an IC50 in the assay listed under Rattus norvegicus [1] of 270 nM.

With `COc1cc(Nc2c(C#N)cnc3cc(/C=C/c4cccnc4)ccc23)c(Cl)cc1Cl`, the half-maximal inhibitory concentration (IC50) amounted to 230 nM in the assay listed under Rattus norvegicus [1] and 15 nM in assay [2].

Regarding `COc1cc(Nc2c(C#N)cnc3cc(C#Cc4cccnc4)ccc23)c(Cl)cc1Cl`, half-maximal inhibition in the assay listed under Rattus norvegicus [1] (IC50) was put at 650 nM.

Consider `COc1cc(Nc2c(C#N)cnc3cc(CCc4ccncc4)ccc23)c(Cl)cc1Cl`, for which the IC50 in the assay filed under Rattus norvegicus [1] is > 10000 nM.

Compound `COc1cc(Nc2c(C#N)cnc3cc(/C=C/c4ccccn4)ccc23)c(Cl)cc1Cl` displayed an Inhibition in the assay listed under Rattus norvegicus [3] of 50%. Moreover, in assay [2], the IC50 amounted to 19 nM.

As to `COc1cc(Nc2c(C#N)cnc3cc(/C=C/c4cccnc4)c(OC)cc23)c(Cl)cc1Cl`, the IC50 was 140 nM in the assay filed under Rattus norvegicus [1] and 8.4 nM in assay [2].

For the compound `COc1cc(Nc2c(C#N)cnc3cc(/C=C/c4ccc5ccccc5c4)ccc23)c(Cl)cc1Cl`, the IC50 in the assay listed under Rattus norvegicus [1] was > 10000 nM; in assay [2], 320 nM.

Regarding `COc1cc(Nc2c(C#N)cnc3cc(/C=C/c4ccccc4)ccc23)c(Cl)cc1Cl`, the half-maximal inhibitory concentration (IC50) is 2700 nM in the assay listed under Rattus norvegicus [1] and 180 nM in assay [2].

As to `N#Cc1cnc2cc(/C=C/c3ccncc3)ccc2c1Oc1ccc(Cl)cc1Cl`, the IC50 was found to be 7200 nM in the assay listed under Rattus norvegicus [1] and 380 nM in assay [2].

For `COc1cc(Nc2c(C#N)cnc3cc(C#Cc4ccccc4)ccc23)c(Cl)cc1Cl`, the IC50 is > 10000 nM in the assay filed under Rattus norvegicus [1] and 320 nM in assay [2].

`COc1cc(Nc2c(C#N)cnc3cc(/C=C/c4ccncc4)ccc23)c(Cl)cc1Cl` registered an IC50 in the assay filed under Rattus norvegicus [1] of 230 nM.

Take `N#Cc1cnc2cc(/C=C/c3ccncc3)ccc2c1NCc1ccc(Cl)cc1Cl`: the IC50 in the assay listed under Rattus norvegicus [1] is > 10000 nM; in assay [2], 1000 nM.

Regarding `N#Cc1cnc2cc(C#Cc3cccnc3)ccc2c1Nc1ccc(Cl)cc1Cl`, the IC50 in the assay filed under Rattus norvegicus [1] was determined as 3900 nM; in assay [2] it was 200 nM.

As to `O=C(O)c1cnc2cc(/C=C/c3ccncc3)ccc2c1Nc1ccc(Cl)cc1Cl`, the IC50 was > 10000 nM in the assay filed under Rattus norvegicus [1] and 1600 nM in assay [2].

For `CCOC(=O)c1cnc2cc(/C=C/c3ccncc3)ccc2c1Nc1ccc(Cl)cc1Cl`, the IC50 in the assay filed under Rattus norvegicus [1] is > 10000 nM; in assay [2], 12000 nM.

Take `C=Cc1ccc2c(Nc3cc(OC)c(Cl)cc3Cl)c(C#N)cnc2c1`: the values for the IC50 (in the assay listed under Rattus norvegicus [1]; in assay [2]) were 9300 nM and 97 nM, respectively.
